Tests used:
Type in all cases: cell-based
hFPR1 [1] = molecular target: T1, hFPR1 (Homo sapiens, UniProt P21462); assay: Akt (Thr308) phosphorylation in hFPR1-FlpIn-CHO cells
T1 construct: expressed in transfected cells
T1 sequence (P21462 1-350): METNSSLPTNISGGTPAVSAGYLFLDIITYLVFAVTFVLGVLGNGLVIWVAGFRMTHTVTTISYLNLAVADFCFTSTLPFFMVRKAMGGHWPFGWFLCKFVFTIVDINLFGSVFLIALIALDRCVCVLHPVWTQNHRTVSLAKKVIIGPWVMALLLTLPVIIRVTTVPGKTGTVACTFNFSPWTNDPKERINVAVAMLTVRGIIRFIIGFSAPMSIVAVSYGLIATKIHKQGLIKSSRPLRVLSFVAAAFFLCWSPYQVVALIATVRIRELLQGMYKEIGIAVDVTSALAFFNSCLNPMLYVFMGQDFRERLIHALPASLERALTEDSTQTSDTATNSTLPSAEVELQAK
Source text: (§1) cDNDA construct and generation of stable cell lines: cDNA in pcDNA3.1^+ encoding the human formyl peptide receptors (FPR) subtypes, hFPR1, hFPR2 and hFPR3 was obtained from Invitrogen. The sequences for 3 hFPR receptors were amplified by PCR and cloned into the Gateway entry vector, pDONR202™, using the BP clonase enzyme mix, according to the manufactures' instructions (Invitrogen Inc, Carlsbad, Calif., USA). All hFPR receptors constructs in pDONR201™ were subsequently transfected into the pEF5/FRT/V5/dest vector using the LR clonase enzyme mix (Invitrogen). Receptor constructs (pEF5/FRT/V5/dest) were used to transfect FIp-In CHO cells as described previously (Valant C et al., PNAS, 2014). Cells were selected using 500 μg/mL hydromycin to generate cell lines stably expressing each receptor construct. Cells were maintained and cultured in high glucose DMEM supplemented with 10% FBS, 16 mM HEPES and 500 μg/mL hydromycin at 37° C. under a humidified atmosphere containing 5% CO2.
(§2) In the various assays described below, cells were plated into 96-well transparent cell culture plates at 4×10^4 cells per well, cultured overnight in serum-free media at 37° C. in 5% CO2.
(§3) Measurement of Akt1/2/3 phosphorylation and Akt 1: The same lysate was used for measurement of Akt1/2/3 phosphorylation (Ser473) and Akt1 (Thr308). Cells were lysed in SureFire lysis buffer and transferred to 384-well opaque proxiplates. Under low-light conditions, a 1:10:40 (v:v:v) dilution of AlphaScreen acceptor beads:Surefire activation buffer:Surefire reaction buffer was prepared and the plate was incubated in the dark at RT for 2 h. Then, a 1:20 (v:v) dilution of AlphaScreen donor beads/dilution was prepared and incubated in the dark at RT for another 2 h, before the fluorescence signal was measured by used of a Fusion-α plate reader (PerkinElmer Life and Analytical Sciences) with standard AlphaScreen settings. Receptor mediated phosphorylation of Akt1/2/3 (Ser473) and Akt1 (Thr308) were determined using the AlphaScreen™ […] SureFire™ kit, as per as per manufacturer's instructions. Data were normalized to the maximal response elicited by 10% (v:v) FBS at the same time point.
(§4) Data analysis: All data were analysed using GraphPad Prism 6.0 (GraphPad Software, San Deigo, Calif., USA). Where appropriate, concentration-response curves were fitted to derive the maximal agonist effect (Emax), and the ligand potency estimate (pEC50), where Emax is the maximal possible response of the system (not the agonist), basal is the basal level of response in the absence of agonist, and pEC50 is the negative logarithm of the agonist concentration that gives a response halfway between Emax and basal.
(§5) In the present study, FIp-IN CHO cells and Gateway plasmid were obtained from Invitrogen Inc (Carlsbad, Calif., USA). The sequences for all 3 known human FPRs (hFPR1, hFPR2 and hFPR3) were amplified by PCR and cloned into the Gateway entry vector, pDONR202TM, using the BP clonase enzyme mix, according to the manufacturers' instructions. The hFPR pDONR201TM constructs were subsequently transfected into the pEF5/FRT/V5/dest vector using the LR clonase enzyme mix (Invitrogen). Receptor constructs (pEF5/FRT/V5/dest) were used to transfect FIp-IN CHO cells, as described previously (Valant et al. 2014). Cells were selected using 500 μg/mL hydromycin to generate cell lines stably expressing each human receptor construct. Cells were maintained and cultured in high glucose Dulbecco's modified eagle medium (DMEM) supplemented with 10% fetal bovine serum (FBS, from JRH Biosciences, Lenexa, Kans., USA) and 500 μg/mL hydromycin B (Invitrogen Inc) at 37° C. under a humidified atmosphere containing 5% CO2. Cell were plated into 96-well transparent cell culture plates at 4×10^4 cells per well, cultured overnight in serum-free media at 37° C. in 5% CO2.

hFPR1 [2] = molecular target: T1, hFPR1; assay: Akt1/2/3 (Ser473) phosphorylation in hFPR1-FlpIn-CHO cells
Source text: as §1, §2, §3, §4, §5

hFPR1 [3] = molecular target: T1, hFPR1; assay: Inhibition of forskolin-stimulated cAMP accumulation in hFPR1-FlpIn-CHO cells; conditions: for Concentration-response profile on forskolin-stimulated cAMP accumulation at hFPR1: in words
Source text: as §1, §2
cAMP Accumulation: CHO-hFPR1, -hFPR2 and -hFPR3 stable transfected cells were plated into 96-well plates and cultured overnight at 37° C. in 5% CO2. Cells were washed with PBS, and cultured overnight. […] Cells were lysed in detection buffer (dH2O, 0.3% Tween 20, 5 mM HEPES, 0.1% BSA). Lysates were transferred to a 384-well plate and mixtures of detection buffer/donor bead-conjugated anti-cAMP antibody and detection buffer: biotinylated cAMP: acceptor bead-conjugated streptavidin were added to the lysates according to the PerkinElmer cAMP Alphascreen protocol. Under low-light conditions, a 1:50 (v:v) dilution of AlphaScreen acceptor beads: stimulation buffer was prepared, 1:150 (v:v) dilution of donor beads and 50 nM biotinylated cAMP in detection buffer was prepared in a 384-well opaque optiplates. Plates were incubated in the dark at room temperature overnight before the fluorescence signal was measured by use of a Fusion-α plate reader (PerkinElmer Life and Analytical Sciences). Data were normalized to the response elicited by 10 μM forskolin at the same time point.
as §4, §5

[4] = Table 8, normalized transduction coefficient, reference agonist Cmpd43
[5] = Table 8, transduction coefficient

Question: What does the source list for CC(C)C1C(NC(=O)Nc2ccc(Cl)cc2)C(=O)N(c2ccccc2)N1C (centres unmarked) [BIDI-002]?
Answer: Emax (hFPR1 [1]; Table 3, percentage of Akt1/2/3 phosphorylation elicited by 10% FBS, read-out: Emax (%), Akt 1 (Thr308) phosphorylation, hFPR1-Flpln-CHO): 15 ± 4%; EC50 (hFPR1 [1]; Table 3, read-out: pEC50, Akt 1 (Thr308) phosphorylation, hFPR1-Flpln-CHO (converted)): 129 nM; ΔLog(τ/KA), Akt 1/2/3 (Thr308) phosphorylation, hFPR1-Flpln-CHO (hFPR1 [1]; [4]): 0.0; Emax (hFPR1 [1]; Table 8, percent of response elicited by 10% FBS, read-out: Emax, Akt 1/2/3 (Thr308) phosphorylation, hFPR1-Flpln-CHO): 15 ± 4%; EC50 (hFPR1 [1]; Table 8, read-out: pEC50, Akt 1/2/3 (Thr308) phosphorylation, hFPR1-Flpln-CHO (converted)): 126 nM; Log(τ/KA), Akt 1/2/3 (Thr308) phosphorylation, hFPR1-Flpln-CHO (hFPR1 [1]; [5]): 6.9 ± 0.3; Emax (hFPR1 [2]; Table 3, percentage of Akt1/2/3 phosphorylation elicited by 10% FBS, read-out: Emax (%), Akt 1/2/3 (Ser473), hFPR1-Flpln-CHO): 13 ± 3%; EC50 (hFPR1 [2]; Table 3, read-out: pEC50, Akt 1/2/3 (Ser473), hFPR1-Flpln-CHO (converted)): 87.1 nM; ΔLog(τ/KA), Akt 1/2/3 (Ser473) phosphorylation, hFPR1-Flpln-CHO (hFPR1 [2]; [4]): 0.0; Emax (hFPR1 [2]; Table 8, percent of response elicited by 10% FBS, read-out: Emax, Akt 1/2/3 (Ser473) phosphorylation, hFPR1-Flpln-CHO): 13 ± 3%; EC50 (hFPR1 [2]; Table 8, read-out: pEC50, Akt 1/2/3 (Ser473) phosphorylation, hFPR1-Flpln-CHO (converted)): 79.4 nM; Log(τ/KA), Akt 1/2/3 (Ser473) phosphorylation, hFPR1-Flpln-CHO (hFPR1 [2]; [5]): 6.9 ± 0.3; Emax (hFPR1 [3]; Table 4, percentage inhibition of forskolin-stimulated cAMP accumulation, read-out: Emax (%), inhibition to cAMP accumulation, hFPR1-Flpln-CHO): 27 ± 20%; EC50 (hFPR1 [3]; Table 4, read-out: pEC50, inhibition to cAMP accumulation, hFPR1-Flpln-CHO (converted)): 74.1 nM; ΔLog(τ/KA), inhibition of cAMP accumulation, hFPR1-Flpln-CHO (hFPR1 [3]; [4]): 0.0; Emax (hFPR1 [3]; Table 8, percent inhibition of forskolin-induced cAMP accumulation, read-out: Emax, inhibition of cAMP accumulation, hFPR1-Flpln-CHO): 27 ± 20%; EC50 (hFPR1 [3]; Table 8, read-out: pEC50, inhibition of cAMP accumulation, hFPR1-Flpln-CHO (converted)): 79.4 nM; Log(τ/KA), inhibition of cAMP accumulation, hFPR1-Flpln-CHO (hFPR1 [3]; [5]): 7.1 ± 0.3; Concentration-response profile on forskolin-stimulated cAMP accumulation at hFPR1 (hFPR1 [3]): bell-shaped curves; Concentration-response profile on forskolin-stimulated cAMP accumulation at hFPR1 (hFPR1 [3]; listed as Cmpd43): bi-phasic curve
